# In PubChem BioAssay AID330 (DTP/NCI, 2004):
# Values joined by “and” are separate entries in the source; they are usually repeats but may differ in a detail not shown here. Equal values may be shown once. Toxic doses and inconclusive results are not listed.
# System: P388 leukemia ip, CD2F1 mice, survival T/C
# Assay: NCI In Vivo Anticancer Drug Screen. Data for tumor model P388 Leukemia (intraperitoneal) in CD2F1 (CDF1) mice
# Conditions: endpoint: median survival time, higher = longer survival
# Outline: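 Mice carrying the transplanted tumor received test compound or vehicle. Survival was recorded in each group, and the value is the treated-group measurement divided by that of the vehicle-treated control group.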
# [1] = dose: 6.25 mg/kg/injection, schedule: Q01DX009 (ip), vehicle: saline
# [2] = dose: 12.5 mg/kg/injection, schedule: Q01DX009 (ip), vehicle: saline
# [3] = dose: 50.0 mg/kg/injection, schedule: Q01DX009 (ip), vehicle: saline
# [4] = dose: 100.0 mg/kg/injection, schedule: Q01DX009 (ip), vehicle: saline
# [5] = dose: 25.0 mg/kg/injection, schedule: Q01DX009 (ip), vehicle: saline
# [6] = dose: 6.25 mg/kg/injection, schedule: Q01DX009 (ip), vehicle: water
# [7] = dose: 25.0 mg/kg/injection, schedule: Q01DX009 (ip), vehicle: water
# [8] = dose: 50.0 mg/kg/injection, schedule: Q01DX005 (ip), vehicle: saline with Tween-80
# [9] = dose: 100.0 mg/kg/injection, schedule: Q01DX005 (ip), vehicle: saline with Tween-80
# [10] = dose: 200.0 mg/kg/injection, schedule: Q01DX005 (ip), vehicle: saline with Tween-80
# [11] = dose: 1.56 mg/kg/injection, schedule: Q01DX009 (ip), vehicle: saline
# [12] = dose: 25.0 mg/kg/injection, schedule: Q01DX009 (ip), vehicle: Klucel (hydroxypropylcellulose) (HPC)
# [13] = dose: 50.0 mg/kg/injection, schedule: Q01DX009 (ip), vehicle: Klucel (hydroxypropylcellulose) (HPC)
# [14] = dose: 50.0 mg/kg/injection, schedule: Q01DX005 (ip), vehicle: Klucel (hydroxypropylcellulose) (HPC)
# [15] = dose: 100.0 mg/kg/injection, schedule: Q01DX005 (ip), vehicle: Klucel (hydroxypropylcellulose) (HPC)
# [16] = dose: 200.0 mg/kg/injection, schedule: Q01DX005 (ip), vehicle: Klucel (hydroxypropylcellulose) (HPC)
structure (smiles),measurement,setting,value
C=CC[n+]1ccc(-c2cc[n+](CC=C)cc2)cc1,T/C,[1],115 % of control
same,T/C,[2],112 % of control and 117 % of control
CC(=O)n1c(N)nc2ccccc21,T/C,[3],104 % of control
same,T/C,[4],104 % of control
same,T/C,"dose: 200.0 mg/kg/injection, schedule: Q01DX009 (ip), vehicle: saline",90 % of control
[CH3][Sn]([CH3])([N]=C=S)[N]=C=S,T/C,[1],86 % of control and 93 % of control
same,T/C,[2],100 % of control and 102 % of control and 106 % of control
same,T/C,[5],99 % of control and 102 % of control
same,T/C,[3],99 % of control and 103 % of control
same,T/C,"dose: 50.0 mg/kg/injection, schedule: Q01DX009 (ip), vehicle: suspension in saline",114 % of control
COC(=O)C(N)CSCSCc1ccccc1 (configuration not stated),T/C,"dose: 3.13 mg/kg/injection, schedule: Q01DX009 (ip), vehicle: water",90 % of control
same,T/C,[6],90 % of control
same,T/C,"dose: 12.5 mg/kg/injection, schedule: Q01DX009 (ip), vehicle: water",93 % of control
same,T/C,[5],100 % of control
same,T/C,[7],90 % of control
same,T/C,[3],98 % of control
same,T/C,"dose: 50.0 mg/kg/injection, schedule: Q01DX009 (ip), vehicle: water",90 % of control
same,T/C,[4],101 % of control
COC1(OC)OC(c2ccccc2)=C(C#N)C(c2ccccc2)C1(OC)OC (configuration not stated),T/C,"dose: 60.0 mg/kg/injection, schedule: Q01DX005 (ip), vehicle: Klucel (hydroxypropylcellulose) (HPC)",102 % of control
same,T/C,"dose: 120.0 mg/kg/injection, schedule: Q01DX005 (ip), vehicle: Klucel (hydroxypropylcellulose) (HPC)",100 % of control
same,T/C,"dose: 240.0 mg/kg/injection, schedule: Q01DX005 (ip), vehicle: Klucel (hydroxypropylcellulose) (HPC)",96 % of control
CC(=O)N(O)c1ccc2c(c1)Cc1cc(F)ccc1-2,T/C,[8],110 % of control and 121 % of control
same,T/C,[9],120 % of control
same,T/C,[10],123 % of control
same,T/C,"dose: 400.0 mg/kg/injection, schedule: Q01DX005 (ip), vehicle: saline with Tween-80",116 % of control
CCC[CH2][Sn]([CH2]CCC)([O]C=O)[O]C=O,T/C,"dose: 0.39 mg/kg/injection, schedule: Q01DX009 (ip), vehicle: saline",99 % of control and 108 % of control
same,T/C,"dose: 0.79 mg/kg/injection, schedule: Q01DX009 (ip), vehicle: saline",100 % of control and 92 % of control
same,T/C,[11],86 % of control and 94 % of control
O=c1[nH]c2cc(Cl)ccc2n1C1CCN(CCCC(c2ccc(F)cc2)c2ccc(F)cc2)CC1,T/C,"dose: 6.25 mg/kg/injection, schedule: Q01DX005 (ip), vehicle: saline with Tween-80",106 % of control
same,T/C,"dose: 12.5 mg/kg/injection, schedule: Q01DX005 (ip), vehicle: saline with Tween-80",110 % of control
same,T/C,"dose: 25.0 mg/kg/injection, schedule: Q01DX005 (ip), vehicle: saline with Tween-80",110 % of control
O=C1c2ccccc2C(=O)N1C(CO)Cc1ccccc1 (configuration not stated),T/C,"dose: 50.0 mg/kg/injection, schedule: Q01DX009 (ip), vehicle: saline with Tween-80",100 % of control
same,T/C,"dose: 100.0 mg/kg/injection, schedule: Q01DX009 (ip), vehicle: saline with Tween-80",95 % of control
same,T/C,"dose: 200.0 mg/kg/injection, schedule: Q01DX009 (ip), vehicle: saline with Tween-80",108 % of control
COc1cc(C=C2C(=O)C=CC2=O)ccc1OCc1ccccc1,T/C,"dose: 2.5 mg/kg/injection, schedule: Q04DX002 (ip), vehicle: saline with Tween-80",102 % of control
same,T/C,"dose: 5.0 mg/kg/injection, schedule: Q04DX002 (ip), vehicle: saline with Tween-80",113 % of control
same,T/C,"dose: 10.0 mg/kg/injection, schedule: Q04DX002 (ip), vehicle: saline with Tween-80",107 % of control
same,T/C,"dose: 25.0 mg/kg/injection, schedule: Q04DX002 (ip), vehicle: saline with Tween-80",111 % of control
CCOC(=O)c1cc2c(nn3c(C)cccc23)n(CC)c1=N,T/C,"dose: 3.12 mg/kg/injection, schedule: Q01DX001 (ip), vehicle: saline",100 % of control and 101 % of control
same,T/C,"dose: 6.25 mg/kg/injection, schedule: Q01DX001 (ip), vehicle: saline",101 % of control and 105 % of control
same,T/C,"dose: 12.5 mg/kg/injection, schedule: Q01DX001 (ip), vehicle: saline",100 % of control and 98 % of control
same,T/C,"dose: 25.0 mg/kg/injection, schedule: Q01DX001 (ip), vehicle: saline",103 % of control and 93 % of control
COC1CCC(/C=C(\C#N)C2CCC(OC)CC2)CC1 (configuration not stated),T/C,[12],107 % of control
same,T/C,[13],100 % of control
same,T/C,"dose: 100.0 mg/kg/injection, schedule: Q01DX009 (ip), vehicle: Klucel (hydroxypropylcellulose) (HPC)",96 % of control
same,T/C,"dose: 200.0 mg/kg/injection, schedule: Q01DX009 (ip), vehicle: Klucel (hydroxypropylcellulose) (HPC)",92 % of control
c1ccc(CN2COc3c4c(c5ccccc5c3C2)CN(Cc2ccccc2)CO4)cc1,T/C,[8],90 % of control
same,T/C,[9],103 % of control
same,T/C,[10],93 % of control
Cc1nnc2c(NO)nccn12,T/C,"dose: 75.0 mg/kg/injection, schedule: Q01DX001 (ip), vehicle: saline",99 % of control
same,T/C,"dose: 150.0 mg/kg/injection, schedule: Q01DX001 (ip), vehicle: saline",101 % of control
same,T/C,"dose: 300.0 mg/kg/injection, schedule: Q01DX001 (ip), vehicle: saline",96 % of control
CCOC(=O)C(N)Cc1ccc(N(CCCl)CCCl)cc1 (configuration not stated),T/C,"dose: 0.5 mg/kg/injection, schedule: Q04DX003 (ip), vehicle: saline",180 % of control
same,T/C,"dose: 1.0 mg/kg/injection, schedule: Q04DX003 (ip), vehicle: saline",195 % of control
same,T/C,"dose: 2.0 mg/kg/injection, schedule: Q04DX003 (ip), vehicle: saline",250 % of control
same,T/C,"dose: 3.13 mg/kg/injection, schedule: Q01DX009 (ip), vehicle: saline",272 % of control
same,T/C,[1],100 % of control
same,T/C,"dose: 6.25 mg/kg/injection, schedule: Q04DX003 (ip), vehicle: saline",272 % of control
same,T/C,"dose: 12.5 mg/kg/injection, schedule: Q04DX003 (ip), vehicle: saline",240 % of control
same,T/C,"dose: 63.0 micrograms/kg/injection, schedule: Q04DX003 (ip), vehicle: saline",113 % of control
same,T/C,"dose: 125.0 micrograms/kg/injection, schedule: Q04DX003 (ip), vehicle: saline",113 % of control
CCOP(=S)(N/N=C/c1ccc2ccccc2c1O)OCC,T/C,[14],109 % of control
same,T/C,[15],106 % of control
same,T/C,[16],95 % of control
COc1cc2c(c(O)c1OC)-c1c(cc(OC)c(OC)c1OC)CC(C)C(C)C2 (configuration not stated),T/C,"dose: 11.25 mg/kg/injection, schedule: Q01DX009 (ip), vehicle: saline + alcohol",100 % of control and 95 % of control
same,T/C,"dose: 11.3 mg/kg/injection, schedule: Q01DX009 (ip), vehicle: saline + alcohol",106 % of control
same,T/C,"dose: 22.5 mg/kg/injection, schedule: Q01DX009 (ip), vehicle: saline + alcohol",101 % of control and 115 % of control and 96 % of control
same,T/C,"dose: 45.0 mg/kg/injection, schedule: Q01DX009 (ip), vehicle: saline + alcohol",106 % of control and 121 % of control and 97 % of control
same,T/C,"dose: 90.0 mg/kg/injection, schedule: Q01DX009 (ip), vehicle: saline + alcohol",113 % of control and 121 % of control and 92 % of control
same,T/C,"dose: 180.0 mg/kg/injection, schedule: Q01DX009 (ip), vehicle: saline + alcohol",96 % of control
O=c1[nH]c(=O)n(C2OC(CO)C(O)C2O)cc1Br (configuration not stated),T/C,"dose: 50.0 mg/kg/injection, schedule: Q01DX005 (ip), vehicle: saline",97 % of control
same,T/C,"dose: 100.0 mg/kg/injection, schedule: Q01DX005 (ip), vehicle: saline",101 % of control
same,T/C,"dose: 200.0 mg/kg/injection, schedule: Q01DX005 (ip), vehicle: saline",102 % of control
CNC(=O)OCc1c(COC(=O)NC)c(-c2c(F)cccc2F)n2c1CCC2,T/C,[6],166 % of control
same,T/C,"dose: 12.5 mg/kg/injection, schedule: Q01DX009 (ip), vehicle: distilled water + Tween-80",155 % of control
same,T/C,"dose: 25.0 mg/kg/injection, schedule: Q01DX009 (ip), vehicle: distilled water + Tween-80",108 % of control
same,T/C,[7],88 % of control
Cn1c(=O)c2c(nc(Br)n2C)n(C)c1=O,T/C,[12],94 % of control
same,T/C,[13],109 % of control
C1CC(N2CC2)CCC1N1CC1 (configuration not stated),T/C,[11],182 % of control
same,T/C,"dose: 3.12 mg/kg/injection, schedule: Q01DX009 (ip), vehicle: saline",237 % of control
C=CC(c1ccccc1)c1cc2c(cc1OCC)OCO2 (configuration not stated),T/C,[14],105 % of control
same,T/C,[15],100 % of control
same,T/C,[16],94 % of control
Cc1cc(=O)c2cc3ccc4c5[nH]c(C)cc(=O)c5cc5ccc(c2[nH]1)c3c54,T/C,[8],101 % of control
same,T/C,[9],106 % of control
same,T/C,[10],111 % of control
